Laboratory results taken from publication PMC6651170, “New HSV-1 Anti-Viral 1′-Homocarbocyclic Nucleoside Analogs with an Optically Active Substituted Bicyclo[2.2.1]Heptane Fragment as a Glycoside Moiety” (Molecules, 2019).
Like-named read-outs stand apart in the source and are kept apart here.

How the values were obtained:
Enterovirus 71 = test: microbe, parasite or virus in culture; type: cell-based; conditions: Enterovirus A, read-out: IC50 Enterovirus 71
[1] = test system: Influenza virus (Flu A, strain A/Puerto Rico/8/34 (H1N1)); test: microbe, parasite or virus in culture; type: cell-based; conditions: for IC50: unidentified influenza virus, H1N1, MDCK, 48 h, read-out: IC50 Influenza Virus
Chikungunya Virus = test: microbe, parasite or virus in culture; type: cell-based; conditions: Chikungunya virus, read-out: IC50 Chikungunya Virus
in vitro [2] = test: in vitro
in vitro [3] = test: in vitro; remark: listed apart in the source
in vitro [4] = conditions: dog
[5] = test system: human adenovirus type 5 (AdV5); test: microbe, parasite or virus in culture; type: cell-based; conditions: Human mastadenovirus C, Vero, 72 h, read-out: IC50 Human Adenovirus Type 5
Yellow Fever Virus = test: microbe, parasite or virus in culture; type: cell-based; conditions: Yellow fever virus, read-out: IC50 Yellow Fever Virus
in vitro [6] = test: in vitro; remark: listed apart in the source
[7] = test system: herpes simplex virus type 1 (HSV-1); test: microbe, parasite or virus in culture; type: cell-based; conditions: for IC50: Human alphaherpesvirus 1, Vero, 72 h, read-out: IC50 Herpes Simplex Virus Type 1
in vitro [8] = conditions: African green monkey
[9] = CC50 (Herpes Simplex Virus Type 1)

SMILES | IC50 (Enterovirus 71) [µM] | IC50 [1] [µM] | IC50 (Chikungunya Virus) [µM] | CC50 (in vitro [2]) [µM] | CC50 (in vitro [3]) [µM] | CC50 (in vitro [4]) [µM] | IC50 [5] [µM] | IC50 (Yellow Fever Virus) [µM] | CC50 (in vitro [6]) [µM] | IC50 [7] [µM] | CC50 (in vitro [8]; [9]) [µM] | CC50 (in vitro [8]; CC50 (Human Adenovirus Type 5)) [µM] | activity against HSV-1 in words [7] | activity against influenza virus in words [1]
Nc1ncnc2c1ncn2C[C@H]1[C@@H]2CC(O)[C@H]1C[C@@H]2Cl (stereo partly drawn) [Compound 6a, (1S,4S,5S,7R)-7-((6-Amino-9H-purin-9-yl)methyl)-5-chlorobicyclo[2.2.1]heptan-2-ol] | 71 | 328 ± 29 | > 100 | > 100 | > 100 | > 1020 | > 340 | > 100 | > 100 | 102 ± 11 | 975 ± 64 | 977 ± 103 | – | –
CN1CCN(Nc2ncnc3c2ncn3C[C@H]2[C@@H]3CC(O)[C@H]2C[C@@H]3Cl)CC1 (stereo partly drawn) [Compound 6g, (1S,4S,5S,7R)-5-Chloro-7-((6-((4-methylpiperazin-1-yl)amino)-9H-purin-9-yl)methyl)bicyclo[2.2.1]heptan-2-ol] | > 100 | > 766 | > 100 | > 100 | > 100 | > 766 | > 766 | > 100 | > 100 | 540 ± 32 | > 766 | > 766 | complete loss of virus inhibition | –
OC1C[C@H]2[C@H](Cn3cnc4c(Cl)ncnc43)[C@@H]1C[C@@H]2Cl (stereo partly drawn) [Compound 5, (1S,4S,5S,7R)-5-Chloro-7-((6-chloro-9H-purin-9-yl)methyl)bicyclo[2.2.1]heptan-2-ol] | > 100 | 254 ± 14 | > 100 | > 100 | > 100 | > 958 | > 958 | > 100 | > 100 | 69 ± 9 | > 830 | > 958 | active against herpes | –
COc1ncnc2c1ncn2C[C@H]1[C@@H]2CC(O)[C@H]1C[C@@H]2Cl (stereo partly drawn) [Compound 7a, (1S,4S,5S,7R)-5-Chloro-7-((6-methoxy-9H-purin-9-yl)methyl)bicyclo[2.2.1]heptan-2-ol] | > 100 | 233 ± 33 | > 100 | > 100 | > 100 | > 972 | > 972 | > 100 | > 100 | > 972 | > 972 | > 972 | – | –
O=c1ccn(C[C@@H]2[C@@H]3C[C@H](Cl)[C@H]2C[C@H]3O)c(=O)[nH]1 [Compound 4b, 1-(((1S,2S,4S,5R,7R)-2-Chloro-5-hydroxybicyclo[2.2.1]heptan-7-yl)methyl)pyrimidine-2,4(1H,3H)-dione] | > 100 | 369 ± 26 | > 100 | > 100 | > 100 | > 1110 | > 1110 | > 100 | > 100 | 705 ± 81 | 1110 | > 1110 | – | –
OC1C[C@H]2[C@H](Cn3cnc4c(NCCc5ccccc5)ncnc43)[C@@H]1C[C@@H]2Cl (stereo partly drawn) [Compound 6k, (1S,4S,5S,7R)-5-Chloro-7-((6-(phenethylamino)-9H-purin-9-yl)methyl)bicyclo[2.2.1]heptan-2-ol] | 25 ± 5.6 | 74 ± 8 | > 100 | > 100 | > 100 | 254 ± 21 | > 75 | > 100 | > 100 | 48 ± 6 | 185 ± 16 | 245 ± 18 | – | –
OC1C[C@H]2[C@H](Cn3cnc4c(N5CCOCC5)ncnc43)[C@@H]1C[C@@H]2Cl (stereo partly drawn) [Compound 6h, (1S,4S,5S,7R)-5-Chloro-7-((6-morpholino-9H-purin-9-yl)methyl)bicyclo[2.2.1]heptan-2-ol] | > 100 | 196 ± 15 | > 100 | > 100 | > 100 | > 600 | > 600 | > 100 | > 100 | 341 ± 40 | > 600 | > 600 | – | –
Nc1nc2c(ncn2COCCO)c(=O)[nH]1 [Acyclovir, reference compound] | – | – | – | – | – | – | – | – | – | 28 ± 4 | > 1130 | – | – | –
Cc1cn(C[C@H]2[C@@H]3CC(O)[C@H]2C[C@@H]3Cl)c(=O)[nH]c1=O (stereo partly drawn) [Compound 4c, 1-(((1S,2S,4S,7R)-2-Chloro-5-hydroxybicyclo[2.2.1]heptan-7-yl)methyl)-5-methylpyrimidine-2,4(1H,3H)-dione] | > 100 | > 1050 | > 100 | > 100 | > 100 | > 1050 | > 1050 | > 100 | > 100 | > 1050 | > 1050 | > 1050 | – | –
Oc1ccc(CCNc2ncnc3c2ncn3C[C@H]2[C@@H]3CC(O)[C@H]2C[C@@H]3Cl)cc1 (stereo partly drawn) [Compound 6i, (1S,4S,5S,7R)-5-Chloro-7-((6-((4-hydroxyphenethyl)amino)-9H-purin-9-yl)methyl)bicyclo[2.2.1]heptan-2-ol] | 79 | > 72 | > 100 | > 100 | > 100 | 124 ± 9 | > 72 | > 100 | > 100 | 155 ± 13 | 447 ± 31 | 217 ± 17 | – | –
OC1C[C@H]2[C@H](Cn3cnc4c(NC5CCCCC5)ncnc43)[C@@H]1C[C@@H]2Cl (stereo partly drawn) [Compound 6d, (1S,4S,5S,7R)-5-Chloro-7-((6-(cyclohexylamino)-9H-purin-9-yl)methyl)bicyclo[2.2.1]heptan-2-ol] | 28 ± 13 | > 27 | > 100 | > 100 | > 100 | 42 ± 3 | 123 ± 14 | > 100 | > 100 | 21 ± 4 | 521 ± 48 | 697 ± 75 | active against herpes | –
OC[C@@H](Cc1ccccc1)Nc1ncnc2c1ncn2C[C@H]1[C@@H]2CC(O)[C@H]1C[C@@H]2Cl (stereo partly drawn) [Compound 6e, (1S,4S,5S,7R)-5-Chloro-7-((6-(((R)-1-hydroxy-3-phenylpropan-2-yl)amino)-9H-purin-9-yl)methyl)bicyclo[2.2.1]heptan-2-ol] | > 100 | > 26 | > 100 | > 100 | > 100 | 188 ± 22 | > 701 | > 100 | > 100 | 380 ± 46 | > 608 | > 701 | – | –
OC1C[C@H]2[C@H](Cn3cnc4c(NC5CCCC5)ncnc43)[C@@H]1C[C@@H]2Cl (stereo partly drawn) [Compound 6c, (1S,4S,5S,7R)-5-Chloro-7-((6-(cyclopentylamino)-9H-purin-9-yl)methyl)bicyclo[2.2.1]heptan-2-ol] | 28 ± 16 | > 83 | > 100 | > 100 | > 100 | 227 ± 19 | > 276 | > 100 | > 100 | 47 ± 6 | 605 ± 42 | 824 ± 91 | active against herpes | –
Nc1ccn(C[C@H]2[C@@H]3CC(O)[C@H]2C[C@@H]3Cl)c(=O)n1 (stereo partly drawn) [Compound 4d, 4-Amino-1-(((1S,2S,4S,7R)-2-chloro-5-hydroxybicyclo[2.2.1]heptan-7-yl)methyl)pyrimidin-2(1H)-one] | > 100 | 102 ± 12 | > 100 | > 100 | > 100 | > 1110 | > 1110 | > 100 | > 100 | 727 ± 77 | > 1110 | > 1110 | ineffective against HSV-1 | active against influenza virus
OC1C[C@H]2[C@H](Cn3cnc4c(NC5CC5)ncnc43)[C@@H]1C[C@@H]2Cl (stereo partly drawn) [Compound 6b, (1S,4S,5S,7R)-5-Chloro-7-((6-(cyclopropylamino)-9H-purin-9-yl)methyl)bicyclo[2.2.1]heptan-2-ol] | > 100 | 419 ± 51 | > 100 | > 100 | > 100 | 752 ± 44 | > 899 | > 100 | > 100 | 599 ± 64 | > 773 | > 899 | – | –
CCOC(=O)C1=C[C@@H](OC(CC)CC)[C@H](NC(C)=O)[C@@H](N)C1 [Oseltamivir, reference compound] | – | 0.3 ± 0.1 | – | – | – | > 100 | – | – | – | – | – | – | – | –
O=c1[nH]c(=O)n(C[C@H]2[C@@H]3CC(O)[C@H]2C[C@@H]3Cl)cc1F (stereo partly drawn) [Compound 4a, 1-(((1S,2S,4S,7R)-2-Chloro-5-hydroxybicyclo[2.2.1]heptan-7-yl)methyl)-5-fluoropyrimidine-2,4(1H,3H)-dione] | > 100 | 173 ± 21 | > 100 | > 100 | > 100 | > 1040 | > 1040 | > 100 | > 100 | > 1040 | > 1040 | > 1040 | – | –
